# Measured values taken from US20210246115A1 (Bioimics AB, priority 2017, published 2021).
# Where a name gives a salt, the structure may show the parent alone. Read-outs that look alike come from different tables or passages of the source.
# Columns and labels:
# [1] = tested on: Staphylococcus aureus subsp. aureus (ATCC29213); experiment: MIC, broth microdilution (CLSI), Staphylococcus aureus ATCC29213; assay type: cell-based; conditions: for MIC: Staphylococcus aureus; for S. aureus ATCC 29213 MIC: Table XIII, hydrochloride salt
# [2] = tested on: E. coli RNase P RNA, M1 RNA; experiment: Inhibition of bacterial RNase P activity, IC50 determination (cleavage of pATSerUG by M1 RNA); assay type: biochemical; conditions: NI: No inhibition
# [3] = tested on: Escherichia coli (ATCC25922); experiment: MIC, broth microdilution (CLSI), Escherichia coli; conditions: for MIC: Escherichia coli, ATCC25922, read-out: E. coli ATCC 25922 MIC, Table XIII; for E. coli ATCC 25922 MIC: Table XIII
# [4] = ATCC29213, Table XIII, read-out: S. aureus ATCC 29213 MIC
# [5] = ATCC29213, read-out: S. aureus ATCC 29213 MIC, Table XIII
Structure (SMILES),"MIC [1, 4] [µg/mL]",IC50 [2] [µM],MIC [3] [µg/mL],"MIC [1, 5] [µg/mL]",S. aureus ATCC 29213 MIC [1] [µg/mL],IC50 ([2]; hydrochloride salt) [µM],E. coli ATCC 25922 MIC ([3]; hydrochloride salt) [µg/mL],E. coli ATCC 25922 MIC [3] [µg/mL]
"Cc1cccc(C(CCNC2CCNCC2)c2cn(C3CCCCC3)c3ccccc23)c1 (stereo not drawn) [Compound 309, N-(3-(1-cyclohexyl-1H-indol-3-yl)-3-(m-tolyl)propyl)piperidin-4-amine hydrochloride salt]",,39,4,8,,,,
"Cc1cccc(C(CCNC2CCNCC2)c2cn(CC3CCCCC3)c3ccc([N+](=O)[O-])cc23)c1 (stereo not drawn) [Compound 428, N-(3-(1-(cyclohexylmethyl)-5-nitro-1H-indol-3-yl)-3-(m-tolyl)propyl)piperidin-4-amine hydrochloride salt]",,15,32,4,,,,
"Cc1cccc(C(CCN(CCCN)CCCN)c2cn(C3CCCCC3)c3ccccc23)c1 (stereo not drawn) [Compound 363, N1-(3-aminopropyl)-N1-(3-(1-cyclohexyl-1H-indol-3-yl)-3-(m-tolyl)propyl)propane-1,3-diamine hydrochloride salt]",,12,32,16,,,,
"Cc1cccc(C(CCNC2CCC(N)CC2)c2cn(C3CCCCC3)c3ccccc23)c1 (stereo not drawn) [Compound 308, N1-(3-(1-cyclohexyl-1H-indol-3-yl)-3-(m-tolyl)propyl)cyclohexane-1,4-diamine hydrochloride salt]",,,4,,4,29,,
"CCCCCCCCn1cc(C(CCNCCCN)C2CCCCC2)c2ccccc21.Cl.Cl (stereo not drawn) [Compound 417, N1-(3-cyclohexyl-3-(1-octyl-1H-indol-3-yl)propyl)propane-1,3-diamine hydrochloride salt]",2,2.8,4,,,,,
"N#Cc1ccc2c(c1)c(C(CCNC1CCNC1)C1CCCCC1)cn2C1CCCCC1 (stereo not drawn) [Compound 413, 1-cyclohexyl-3-(1-cyclohexyl-3-(pyrrolidin-3-ylamino)propyl)-1H-indole-5-carbonitrile hydrochloride salt]",,20,8,4,,,,
"Cl.Cl.NCCCNCCC(c1cccc(OC(F)(F)F)c1)c1cn(C2CCCCC2)c2ccccc12 (stereo not drawn) [Compound 370, N1-(3-(1-cyclohexyl-1H-indol-3-yl)-3-(3-(trifluoromethoxy)phenyl)propyl) propane-1,3-diamine salt]",4,8.4,4,,,,,
"Cl.Cl.N#Cc1ccc2c(c1)c(C(CCNCCCN)C1CCCCC1)cn2C1CCCCC1 (stereo not drawn) [Compound 382, 3-(3-((3 - aminopropyl)amino)-1-cyclohexylpropyl)-1-cyclohexyl-1H-indole-5-carbonitrile hydrochloride salt]",4,20,4,,,,,
"NCCCNC1CCCC(c2cn(C3CCCCC3)c3ccc(C4CCCCC4)cc23)C1 (stereo not drawn) [Compound 420, N1-(3-(1,5-dicyclohexyl-1H-indol-3-yl)cyclohexyl)propane-1,3-diamine]",2,8.4,2,,,,,
"N#Cc1ccc2c(C(CCNC3CCC(N)CC3)c3cccc(OC(F)(F)F)c3)cn(C3CCCCC3)c2c1 [Compound 415, 3-(3-(((1S,4S)-4-aminocyclohexyl)amino)-1-(3-(trifluoromethoxy)phenyl)propyl)-1-cyclohexyl-1H-indole-6-carbonitrile hydrochloride salt]",,16,16,4,,,,
"Cc1cccc(C(CCNC2CCC(N)CC2)c2cn(C3CCCCC3)c3ccccc23)c1 [Compound 395, (1S,4S)- -N1-(3-(1-cyclohexyl-1H-indol-3-yl)-3-(m-tolyl)propyl) cyclohexane-1,4-diamine hydrochloride salt]",,,,,1,8.2,8,
"Cc1cccc(C(CCNC2CCNCC2)c2cn(C3CC4CCC3C4)c3ccccc23)c1 (stereo not drawn) [Compound 323, hydrochloride salt]",,42,4,8,,,,
"NCCCNCCC(c1cn(C2CCCCC2)c2ccccc12)C1CCCCC1 (stereo not drawn) [Compound 383, N1-(3-cyclohexyl-3-(1-cyclohexyl-1H-indol-3-yl)propyl)propane-1,3-diamine]",4,28,4,,,,,
"NCCCNCCC(c1cccc(OC(F)(F)F)c1)c1cn(C2CCCCC2)c2ccc(C(N)=O)cc12 (stereo not drawn) [Compound 376, 3-(3-((3-aminopropyl)amino)-1-(3-(trifluoromethoxy)phenyl)propyl)-1-cyclohexyl-1H-indole-5-carboxamide]",16,40,32,,,,,
"Cl.Cl.N#Cc1ccc2c(C(CCNCCCN)c3cccc(OC(F)(F)F)c3)cn(C3CCCCC3)c2c1 (stereo not drawn) [Compound 410, 3-(3-((3-aminopropyl)amino)-1-(3-(trifluoromethoxy)phenyl)propyl)-1-cyclohexyl-1H-indole-6-carbonitrile salt]",4,10,4,,,,,
"CCC(CC)C(CCNCCCN)c1cn(C2CCCCC2)c2ccccc12.Cl.Cl (stereo not drawn) [Compound 416, N1-(3-(1-cyclohexyl-1H-indol-3-yl)-4-ethylhexyl)propane-1,3-diamine hydrochloride salt]",4,26,2,,,,,
"Cc1cccc(-c2ccc3c(c2)c(CCCNCCCN)cn3CC2CCCCC2)c1.Cl.Cl [Compound 375, N1-(3-(1-(cyclohexylmethyl)-5-(m-tolyl)-1H-indol-3-yl)propyl)propane-1,3-diamine hydrochloride salt]",4,4.7,4,,,,,
"Cc1cccc(-c2ccc3c(c2)c(CCNCCCN)cn3C2CCCCC2)c1.Cl.Cl [Compound 384, N1-(2-(1-cyclohexyl-5-(m-tolyl)-1H-indol-3-yl)ethyl)propane-1,3-diamine hydrochloride salt]",4,19,4,,,,,
"Cc1cccc(C(CCNCCCNS(=O)(=O)c2ccc(F)cc2)c2cn(C3CCCCC3)c3ccccc23)c1 (stereo not drawn) [Compound 365, N-(3-((3-(1-cyclohexyl-1H-indol-3-yl)-3-(m-tolyl)propyl)amino)propyl)-4-fluorobenzenesulfonamide]",4,21,> 128,,,,,
"NC1CCC(NCCC(c2cccc(OC(F)(F)F)c2)c2cn(C3CCCCC3)c3ccccc23)CC1 [Compound 397, (1S,4S)-N1-(3-(1-cyclohexyl-1H-indol-3-yl)-3-(3-(trifluoromethoxy)phenyl)propyl)cyclohexane-1,4-diamine hydrochloride salt]",,,,,2,6,,8
"Cc1cccc(C(CCNCC(N)CN)c2cn(C3CCCCC3)c3ccccc23)c1 (stereo not drawn) [Compound 394, N1-(3-(1-cyclohexyl-1H-indol-3-yl)-3-(m-tolyl)propyl)propane-1,2,3-triamine hydrochloride salt]",,15,32,8,,,,

# Continued, in another order:
"MIC [1, 4] [µg/mL]",IC50 [2] [µM],MIC [3] [µg/mL],Structure (SMILES),"MIC [1, 5] [µg/mL]",S. aureus ATCC 29213 MIC [1] [µg/mL],IC50 ([2]; hydrochloride salt) [µM],E. coli ATCC 25922 MIC ([3]; hydrochloride salt) [µg/mL],E. coli ATCC 25922 MIC [3] [µg/mL]
8,41,4,"Cc1ccccc1C(CCNCCCN)c1cn(C2CCCCC2)c2ccccc12.Cl.Cl (stereo not drawn) [Compound 345, N1-(3-(1-cyclohexyl-1H-indol-3-yl)-3-(o-tolyl)propyl)propane-1,3-diamine hydrochloride salt]",,,,,
8,38,4,"Cc1cccc(C(CCNCCCN)c2cn(C3CCCCC3)c3ccccc23)c1 (stereo not drawn) [Compound 358, N1-(3-(1-cyclohexyl-1H-indol-3-yl)-3-(m-tolyl)propyl)propane-1,3-diamine]",,,,,
16,130,> 128,"Cc1cccc(C(CCN[C@H]2CC[C@H](NC(N)=O)CC2)c2cn(C3CCCCC3)c3ccccc23)c1 (stereo partly drawn) [Compound 377, 1-((1R,4R)-4-((3-(1-cyclohexyl-1H-indol-3-yl)-3-(m-tolyl)propyl)amino)cyclohexyl) urea]",,,,,
8,120,> 128,"CC(=O)N1CCC(NCCC(c2cccc(C)c2)c2cn(C3CCCCC3)c3ccccc23)CC1.Cl (stereo not drawn) [Compound 373, 1-(4-((3-(1-cyclohexyl-1H-indol-3-yl)-3-(m-tolyl)propyl)amino)piperidin-1-yl) ethan-1-one salt]",,,,,
4,21,8,"Cc1cccc(CC(CCNC2CCC(N)CC2)c2cn(C3CCCCC3)c3ccccc23)c1.Cl.Cl [Compound 408, (1R,4R)-N1-(3-(1-cyclohexyl-1H-indol-3-yl)-4-(m-tolyl)butyl)cyclohexane-1,4-diamine hydrochloride salt]",,,,,
8,39,8,"Cc1cccc(C(CCN[C@H]2CC[C@H](N)CC2)c2cn(C3CCCC3)c3ccccc23)c1.Cl.Cl (stereo partly drawn) [Compound 332, (1R,4R)-N1-(3-(1-cyclopentyl-1H-indol-3-yl)-3-(m-tolyl)propyl) cyclohexane-1,4-diamine hydrochloride salt]",,,,,
16,53,> 128,"Cc1cccc(C(CCNC2CCN(C(N)=O)CC2)c2cn(C3CCCCC3)c3ccccc23)c1.Cl.Cl (stereo not drawn) [Compound 374, 4-((3-(1-cyclohexyl-1H-indol-3-yl)-3-(m-tolyl)propyl)amino)piperidine-1-carboxamide hydrochloride salt]",,,,,
8,68,8,"Cc1cccc(C(CCNCCCN)c2cn(C3CCCC3)c3ccccc23)c1.Cl.Cl (stereo not drawn) [Compound 334, N1-(3-(1-cyclopentyl-1H-indol-3-yl)-3-(m-tolyl)propyl)propane-1,3-diamine hydrochloride salt]",,,,,
8,64,4,"Cl.Cl.NCCCNCCC(c1ccccc1)c1cn(C2CCCCC2)c2ccccc12 (stereo not drawn) [Compound 343, N1-(3-(1-cyclohexyl-1H-indol-3-yl)-3-phenylpropyl) propane-1,3-diamine hydrochloride salt]",,,,,
